“And” between values parts separate entries of the source, which are not always exact repeats. Equal entries are not always repeated. Where two headings read alike, the source gives them in different places.
Legend:
tcTERT [1] = molecular target: T1, tcTERT (Tribolium castaneum, UniProt Q0QHL8); experiment: Pre-steady-state single-turnover kinetics of tcTERT single nucleotide insertion; format: biochemical; parameters: tcTERT kobs: unit not given here; details: for Fold change: catalytic efficiency relative to dGTP
T1 sequence (Q0QHL8 entry or part of it): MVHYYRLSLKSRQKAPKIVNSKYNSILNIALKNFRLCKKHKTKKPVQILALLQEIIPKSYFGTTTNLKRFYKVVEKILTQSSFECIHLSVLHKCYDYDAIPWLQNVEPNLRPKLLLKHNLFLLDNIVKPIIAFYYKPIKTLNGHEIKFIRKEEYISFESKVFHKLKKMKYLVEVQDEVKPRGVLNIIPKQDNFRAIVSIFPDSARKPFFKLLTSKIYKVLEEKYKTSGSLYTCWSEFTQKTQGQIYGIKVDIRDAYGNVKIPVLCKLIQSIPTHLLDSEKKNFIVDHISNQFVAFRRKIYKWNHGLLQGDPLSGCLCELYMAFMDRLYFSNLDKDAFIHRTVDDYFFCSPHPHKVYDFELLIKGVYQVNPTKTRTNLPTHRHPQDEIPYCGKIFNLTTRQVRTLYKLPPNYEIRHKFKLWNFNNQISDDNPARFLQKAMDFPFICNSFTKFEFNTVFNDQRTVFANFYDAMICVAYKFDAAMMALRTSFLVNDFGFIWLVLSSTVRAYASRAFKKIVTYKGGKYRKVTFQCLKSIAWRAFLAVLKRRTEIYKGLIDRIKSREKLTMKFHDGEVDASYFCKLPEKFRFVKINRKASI
From the text: In order to better understand the ability of modified dNTPs to compete with natural dNTPs for telomerase utilization, we added modified dNTPs to reactions containing all four natural dNTPs. […] The calculated IC50 determines the concentration required to reduce repeat processivity in the bulk reactions by half. However, it is important to note that bulk experiments cannot distinguish effects on individual telomeres, since extended telomeres mask unextended telomeres. Incorporation of a chain terminator during any step will terminate extension of the affected telomere, and just five critically short telomeres are sufficient to trigger senescence. Therefore, repeat processivity IC50 values are not necessarily an indicator of the inhibitory potency, but provide information on selectivity for modified dNTPs compared to natural dNTPs. […] The ability to purify sufficient quantities of tcTERT enables characterization of the catalytic nucleotide addition by pre-steady-state single turnover kinetics using a defined DNA–RNA primer–template substrate. The catalytic efficiency of incorporating a single dNTP is measured by dividing the observed nucleotide incorporation rate constant, kpol, by the equilibrium dissociation constant for dNTP binding to the tcTERT–primer–template complex (Kd)[44].
Pre-steady-state kinetic parameters of tcTERT were obtained using established pre-steady-state kinetics protocols for DNA polymerases, also known as single turnover kinetics[70],[71]. Briefly, we preincubated 2 μM tcTERT with 200 nM annealed DNA:RNA hybrid substrate, with a 6-FAM label on the 5′ end of the DNA component. We then used a KinTek RQF-3 (a rapid quench-flow instrument) to mix equal ratios of the incoming nucleotide triphosphate and 10 mM MgCl2 with the existing mix of tcTERT and its DNA:RNA hybrid substrate. Reactions were run at 37 °C and quenched at various timepoints with 100 mM EDTA pH 7.5. […] After each reaction, the samples were transferred to a DNA gel loading buffer, containing 100 mM EDTA, 80% deionized formamide, 0.25 mg ml^−1 bromophenol blue, and 0.25 mg ml^−1 xylene cyanol. These mixes were then incubated at 95 °C for 5 min, and loaded onto a 21% denaturing polyacrylamide gel. These gels were run at 700 V, […], and 30 W at 30 °C in order to separate the reaction product from its substrate.
Means and standard deviations from at least three independent replicates were calculated, and graphed using KaleidaGraph version 4.5.2. Plots of product formation over time were fit to the exponential equation (1) to determine kobs values:1 P=A(1−e^−kobst).
In which [P] is the concentration of the product, A is the target engagement (amplitude), and t is the reaction time. After kobs values were determined for multiple nucleotide triphosphate concentrations, the data was replot to compare kobs to concentration of nucleotide triphosphate, and fit to Eq. (2):2 kobs=kpol[NTP]/Kd+[NTP]. with kpol representing the theoretical maximum value of kobs, and [NTP] representing the concentration of the nucleotide of interest.

polymerase β = polymerase β (Homo sapiens, UniProt P06746); experiment: Polymerase β dGTP run-on assay; format: biochemical; details: 50 or 200 μM dGTP
Method: These mixes were then incubated at 95 °C for 5 min, and loaded onto a 21% denaturing polyacrylamide gel. These gels were run at 700 V, […], and 30 W at 30 °C in order to separate the reaction product from its substrate.
Supplementary Fig 4. Time course reactions with telomerase or pol β. (a, b) Telomerase reactions were conducted with 5 nM 32P-end labeled primer (a) Primer 4 (GTTAGG)3 or (b) Primer 2 (GGTTAG)3.
Products were separated on denaturing gels. Letters on the right indicate the template base; P indicates unextended 18-mer primer. Graphs represent the percent primer extended for the reactions in panels a and b from one experiment. ( c, d) Primer extension by human polymerase b. The double stranded 6- […]
reactions were run on denaturing gels and imaged using a Typhoon phosphoimager. P indicates unextended 13-mer primer from three independent experiments. Source data are provided as a Source […]

tcTERT [2] = molecular target: T1, tcTERT; details: cited from earlier work
[3] = dNTP binding to tcTERT-primer-template complex

Nc1nc2c(ncn2C2CC(O)C(COP(=O)(O)OP(=O)(O)OP(=O)(O)O)O2)c(=O)[nH]1 (stereo not shown) [dGTP]
Fold higher catalytic efficiency of dGTP compared to 6-thio-dGTP (tcTERT [1]): 2 fold | Fold change (tcTERT [1]): 1.000 | Laddering or misincorporation by DNA polymerase β (in words) (polymerase β): no evidence of dGTP laddering or misincorporation opposite template A | Kd (tcTERT [2]; [3]): 18.1 ± 3.78 µM | Catalytic efficiency (kpol/Kd) (tcTERT [2]; single nucleotide insertion): 58000 ± 12000 M⁻¹ s⁻¹ | kpol (tcTERT [2]; single nucleotide insertion): 1.1 ± 0.03 s⁻¹

Nc1nc2c(ncn2C2CC(O)C(COP(=O)(O)OP(=O)(O)OP(=O)(O)O)O2)c(=S)[nH]1 (stereo not shown) [6-thio-dGTP]
tcTERT kobs (tcTERT [1]; [6-thio-dGTP] 0.5 uM, Mean): 0.024 | tcTERT kobs (tcTERT [1]; [6-thio-dGTP] 0.5 uM, single replicates): 0.020 and 0.017 and 0.037 | tcTERT kobs (tcTERT [1]; [6-thio-dGTP] 1 uM, Mean): 0.036 | tcTERT kobs (tcTERT [1]; [6-thio-dGTP] 1 uM, single replicates): 0.046 and 0.026 and 0.035 | tcTERT kobs (tcTERT [1]; [6-thio-dGTP] 3 uM, Mean): 0.084 | tcTERT kobs (tcTERT [1]; [6-thio-dGTP] 3 uM, single replicates): 0.093 and 0.083 and 0.076 | tcTERT kobs (tcTERT [1]; [6-thio-dGTP] 5 uM, Mean): 0.142 | tcTERT kobs (tcTERT [1]; [6-thio-dGTP] 5 uM, single replicates): 0.256 and 0.136 and 0.070 and 0.105 | tcTERT kobs (tcTERT [1]; [6-thio-dGTP] 7 uM, Mean): 0.143 | tcTERT kobs (tcTERT [1]; [6-thio-dGTP] 7 uM, single replicates): 0.232 and 0.073 and 0.125 | tcTERT kobs (tcTERT [1]; [6-thio-dGTP] 10 uM, Mean): 0.239 | tcTERT kobs (tcTERT [1]; [6-thio-dGTP] 10 uM, single replicates): 0.389 and 0.333 and 0.126 and 0.109 | tcTERT kobs (tcTERT [1]; [6-thio-dGTP] 15 uM, Mean): 0.330 | tcTERT kobs (tcTERT [1]; [6-thio-dGTP] 15 uM, single replicates): 0.523 and 0.151 and 0.314 | tcTERT kobs (tcTERT [1]; [6-thio-dGTP] 20 uM, Mean): 0.552 | tcTERT kobs (tcTERT [1]; [6-thio-dGTP] 20 uM, single replicates): 0.535 and 0.464 and 0.603 and 0.606 | tcTERT kobs (tcTERT [1]; [6-thio-dGTP] 25 uM, Mean): 0.632 | tcTERT kobs (tcTERT [1]; [6-thio-dGTP] 25 uM, single replicates): 0.411 and 0.737 and 0.749 | tcTERT kobs (tcTERT [1]; [6-thio-dGTP] 40 uM, Mean): 0.951 | tcTERT kobs (tcTERT [1]; [6-thio-dGTP] 40 uM, single replicates): 0.795 and 1.041 and 1.018 | tcTERT kobs (tcTERT [1]; [6-thio-dGTP] 50 uM, Mean): 1.139 | tcTERT kobs (tcTERT [1]; [6-thio-dGTP] 50 uM, single replicates): 1.051 and 1.270 and 1.096 | tcTERT kobs (tcTERT [1]; [6-thio-dGTP] 75 uM, Mean): 1.424 | tcTERT kobs (tcTERT [1]; [6-thio-dGTP] 75 uM, single replicates): 1.281 and 1.438 and 1.554 | tcTERT kobs (tcTERT [1]; [6-thio-dGTP] 100 uM, Mean): 1.760 | tcTERT kobs (tcTERT [1]; [6-thio-dGTP] 100 uM, single replicates): 1.806 and 1.680 and 1.793 | tcTERT kobs (tcTERT [1]; [6-thio-dGTP] 150 uM, Mean): 1.896 | tcTERT kobs (tcTERT [1]; [6-thio-dGTP] 150 uM, single replicates): 1.870 and 2.039 and 1.778 | Fold change (tcTERT [1]): 0.579 | Kd (tcTERT [1]; [3]): 92.4 ± 12.9 µM | kpol (tcTERT [1]; single nucleotide insertion, 37 °C): 3.1 ± 0.23 s⁻¹
